Tests used:
Type in all cases: cell-based, human
[1] = test system: anti-CD3/anti-CD28 stimulated PBLs; assay: Transcription factor (FOXP3, Tbox21, GATA3) mRNA expression by Real-Time PCR in activated PBL
Experimental: This example describes the effect of TGFβ1 on the expression levels of Tbox 21, GATA3 and FOXP3 expression in anti-CD3/anti-CD28 stimulated PBLs. Real-time PCR was used to quantitate the levels of transcription factor mRNA in the presence and absence of TGFβ1.
PBL were stimulated for 72 hours with anti-CD3/anti-CD28 in the presence or absence of TGFβ1 and total RNA was extracted using a QiganRNeasy Mini Kit according to manufacturer's instructions. RNA was stored at minus 80° C.
cDNA was prepared from RNA using the Applied Biosystems High-Capacity cDNA Archive Kit according to manufacturer's instructions.
One μg cDNA was amplified using Applied Biosystems Assays-on-Demand™ Gene Expression products (i.e., TaqMan Universal PCR Mastermix and Assay-on-Demand solution, including marker specific primers) according to the following protocol, in accordance with manufacturer's instructions. Probe/primer reagents for FOXP3, GATA3 and Tbox21 were obtained from Applied Biosystems via the Assay on Demand program.
For the QPCR reaction, 2.5 μl Assay on Demand reagent (Applied Biosystems) were added to 25 μl TaqMan Master Mix™ and samples brought to a total volume of 50 μl with RNAse-free water. PCR reactions were run under the following conditions: 50° C. for 1 minute, 95° C. for 10 minutes and 40 cycles of 95° C. for 15 seconds followed by 60° C. for 1 minute. 18 sRNA or β-actin was run with every assay as a control; 2.5 μl of primer/probe mix, 25 μl of TaqMan MasterMix™, 22.5 μl RNAse-free water. Reactants were detected using an Applied Biosystems QPCR instrument (i.e., ABI Program 7000 SDS Sequence Detection System). The relative expression of the transcription factors for both TGFβ1-treated and untreated stimulated PBLs was determined. Relative expression was calculated assuming that the levels of transcription factor mRNA in stimulated PBL in the absence of added cytokines was 100%. […]

Th1 cells [2] = assay: Cytokine production in differentiated Th1 cells (Searchlight ELISA); details: percent of untreated control, 7-12 days
Source text: (§1) Differentiated cell lines were produced from cells prepared from human cord blood or peripheral blood CD4+CD45RA+ naïve T cells by a variety of methods, including flow cytometry and magnetic bead separations. Purity of the starting populations was >95%. Cells were then stimulated by CD3 and CD28 antibodies in RPMI 1640 with 10% FCS and 1% Human AB serum with defined mixtures of cytokines and neutralizing antibodies to cytokines to produce the differentiated cell types. Th1 cells were produced by culture with IL12 (62 U/ml) and anti-IL4 (0.2 ug/ml); Th2 cells were produced by culture in IL4(145 U/ml) and anti-IL12 (10 ug/ml) and anti-IFNγ (10 ug/ml); and regulatory T cells were produced by culture in TGFβ (32 U/ml), IL9 (42 U/ml), anti-IL4 (10 ug/ml) and anti-IL12 (10 ug/ml) and anti-IFNγ (10 ug/ml). (Note: anti-IL12 was not used in all experiments). All cultures were supplemented with IL2 (65 U/ml) and IL15 (4500 U/ml). Cells were split into larger culture dishes as warranted by cell division. At the conclusion of one round of cell differentiation (7-12 days), cells were harvested for preparation of total RNA for use in the gene chip experiments.
(§2) Differentiated cells were prepared as described in Example 1. Varying concentrations (0.1 μM, 1.0 μM and 10 μM) of Thioperamide was added at the time of plating. At the conclusion of one round of cell differentiation (7-12 days), cells were assayed for the production of the cytokines, IL-2, IL-4, IL-5, IL-10, IL-12-p70, IL-13, IFN-γ, TNF-alpha, and TGFβ1, by Searchlight™ technology, a chemiluminescent enzyme-linked immunoabsorbant assay (ELISA) according to the manufacturer's instructions, commercially available from Pierce Biotechnology.
(§3) Data are plotted as a percent of control (untreated) assuming that the levels of cytokine production in stimulated differentiated cells in the absence of Thioperamide is 100%.
(§4) Differentiated cells were prepared as described in Example 1. Varying concentrations (1.0 μM, 10.0 μM and 100 μM) of Serotonin was added at the time of plating. At the conclusion of one round of cell differentiation (7-12 days), cells were assayed for the production of the cytokines, IL-2, IL-4, IL-5, IL-10, IL-12-p70, IL-13, IFN-γ, TNFα, and TGFβ1, by ELISA as described in Example 5.
(§5) Data are plotted as a percent of control (untreated) assuming that the levels of cytokine production in stimulated PBL in the absence of Serotonin is 100%.
as §4, with “(0.1” for “(1.0”, “1.0” for “10.0”, “10.0” for “100”, “Rolipram or Zardaverine” for “Serotonin”
(§6) The results of the effect of Rolipram on the production of cytokines is shown in FIGS. 11A, 11B, and 11C, and the results of the effect of Zardaverine on the production of cytokines is shown in FIGS. 12A, 12B, and 12C. Data are plotted as a percent of control (untreated) assuming that the levels of cytokine production in stimulated PBL in the absence of rolipram or zardaverine is 100%.

Th2 cells [3] = assay: Proliferation of differentiated Th2 cells (cell count); details: cells counted
Source text: (§7) Differentiated cell lines were produced from cells prepared from human cord blood or peripheral blood CD4+CD45RA+ naïve T cells by a variety of methods, including flow cytometry and magnetic bead separations. Purity of the starting populations was >95%. Cells were then stimulated by CD3 and CD28 antibodies in RPMI 1640 with 10% FCS and 1% Human AB serum with defined mixtures of cytokines and neutralizing antibodies to cytokines to produce the differentiated cell types. […]
(§8) Differentiated cell types were prepared as described in Example 1 then cultured in the presence of anti-CD3 and anti-CD28 for seven days. Cells were subsequently re-stimulated with anti-CD3 and anti-CD28, with the addition of Serotonin at 1, 10 and 100 μM, for three days at which time the cells were counted and the data were plotted as a percent of control (untreated cells).
as §8, with “anti-CD28 (as described in Example 7),” for “anti-CD28,”, “either Rolipram or Zardaverine” for “Serotonin”, “0.1 μM, 1.0 μM and” for “1,”, “μM” for “and 100 μM,”

Th1 cells [4] = assay: Proliferation of differentiated Th1 cells (cell count); details: re-stimulated with anti-CD3 and anti-CD28, three days, cells counted; vs untreated cells
Source text: as §7, §8
as §8, with “anti-CD28 (as described in Example 7),” for “anti-CD28,”, “either Rolipram or Zardaverine” for “Serotonin”, “0.1 μM, 1.0 μM and” for “1,”, “μM” for “and 100 μM,”

TGFβ1-derived Treg cells [5] = assay: Cytokine production in TGFβ1-derived Treg cells (Searchlight ELISA); details: percent of untreated control, 7-12 days
Source text: as §1, §2, §3, §4, §5
as §4, with “(0.1” for “(1.0”, “1.0” for “10.0”, “10.0” for “100”, “Rolipram or Zardaverine” for “Serotonin”
as §6

Th2 cells [6] = assay: Cytokine production in differentiated Th2 cells (Searchlight ELISA); details: percent of untreated control, 7-12 days
Source text: as §1, §2, §3, §4, §5
as §4, with “(0.1” for “(1.0”, “1.0” for “10.0”, “10.0” for “100”, “Rolipram or Zardaverine” for “Serotonin”
as §6

TGFβ1-derived Treg cells [7] = assay: Proliferation of TGFβ1-derived Treg cells (cell count); details: cells counted; for proliferation of TGFβ1-derived Treg cells: re-stimulated with anti-CD3 and anti-CD28, three days, vs untreated cells
Source text: as §1, §8
as §8, with “anti-CD28 (as described in Example 7),” for “anti-CD28,”, “either Rolipram or Zardaverine” for “Serotonin”, “0.1 μM, 1.0 μM and” for “1,”, “μM” for “and 100 μM,”

[8] = mRNA, among the concentrations tested
[9] = mRNA, over the concentrations tested, control = 100%
[10] = PBL stimulated 72 hours with anti-CD3/anti-CD28, mRNA, FIG. 1

Row | Compound | FOXP3 expression relative to control [1, 9] | GATA3 expression relative to control [1, 9] | production of IFN-gamma (Th1 cells [2]) | production of IL-10 (Th1 cells [2]) | production of TNF-alpha (Th1 cells [2]) | proliferation of Th1 cells (Th1 cells [4]) | production of IFN-gamma (TGFβ1-derived Treg cells [5]) | production of IL-2 (TGFβ1-derived Treg cells [5]) | production of TGFβ1 (TGFβ1-derived Treg cells [5]) | production of IL-4 (Th2 cells [6]) | production of IL-5 (Th2 cells [6]) | production of IL-10 (Th2 cells [6]) | production of IL-13 (Th2 cells [6]) | proliferation of TGFβ1-derived Treg cells (TGFβ1-derived Treg cells [7]) | Tbox21 expression relative to control [1, 9] | also measured
1 | CC(C)Oc1ccc2c(=O)c3cc(C(=O)O)ccc3oc2c1 [AH6809] | trend toward increasing | unchanged |  |  |  |  |  |  |  |  |  |  |  |  |  | Tbox21 expression relative to untreated control ([1]; at 0.1 μM): increased; Tbox21 expression relative to untreated control ([1]; at 10 μM): decreased; concentration of maximal FOXP3 expression [1, 8]: 0.1 µM
2 | TGFβ1: Transforming growth factor, beta 1; secreted protein added to stimulated PBL |  |  |  |  |  |  |  |  |  |  |  |  |  |  |  | FOXP3 expression relative to an untreated control [1, 10]: approximately 2.5 fold; GATA3 expression relative to an untreated control [1, 10]: approximately 2 fold
3 | NCCc1c[nH]c2ccc(O)cc12 [Serotonin] | increase | increase | significantly reduced | significantly reduced | significantly reduced | no proliferative effect | significantly reduced | significantly reduced | significantly reduced | significantly reduced | significantly reduced | no effect | significantly reduced | no proliferative effect | increase | production of IL-2 (Th1 cells [2]): significantly reduced; production of IL-12 (Th1 cells [2]): significantly reduced; increase of proliferation of Th2 cells compared to untreated control cells (Th2 cells [3]; at each concentration tested (1, 10 and 100 μM), three days): 50%; concentration of maximal GATA3 induction [1, 8]: 10.0 µM; concentration of maximal Tbox 21 induction [1, 8]: 1.0 µM
4 | S=C(NC1CCCCC1)N1CCC(c2cnc[nH]2)CC1 [Thioperamide] |  |  | significantly induce |  | significantly induce |  | significantly increased | significantly increased | significantly increased | significantly increased | significantly increased | significantly reduced | significantly increased |  | relatively unchanged | production of IL-13 (Th1 cells [2]): significantly reducing; production of IL-4 (TGFβ1-derived Treg cells [5]): significantly reduced; production of IL-10 (TGFβ1-derived Treg cells [5]): significantly increased; FOXP3 expression relative to control ([1]; at 10 μM): moderate increase; GATA3 expression relative to control ([1]; at 10 μM): moderate increase
5 | COc1ccc(C2CNC(=O)C2)cc1OC1CCCC1 (stereo not drawn) [Rolipram] | increased expression | increased expression |  | significantly reduced |  | reduce |  |  | significantly increased | significantly increased | significantly increased |  | significantly increased | reduce | neither of these inhibitors had more than a modest effect | proliferation of Th2 cells (Th2 cells [3]; re-stimulated with anti-CD3 and anti-CD28, three days, vs untreated cells): reduce; proliferation of TGFβ1-derived Treg cells compared with Th1 and Th2 cells (TGFβ1-derived Treg cells [7]; 0.1, 1.0 and 10 μM, three days): may have been more strongly affected

— patent US20090318357A1, “Molecules Preferentially Associated with Effector T Cells or Regulatory T Cells and Methods of Their Use” (Tolerx, Inc., priority 2002, published 2009)
